Results taken from ChEMBL document CHEMBL5303573, “Mapping human microbiome drug metabolism by gut bacteria and their genes” (Nature, 2019).

Assays:
[1] = The drug is tested on Bacteroides uniformis strain: ATCC8492 for biotransformation. The drug concentrations were measured before and after a 12-h incubation by liquid-chromatography-coupled mass spectrometry (LC–MS); conditions: 2 µM
[2] = The drug is tested on Bacteroides fragilis strain: HMW610 for biotransformation. The drug concentrations were measured before and after a 12-h incubation by liquid-chromatography-coupled mass spectrometry (LC–MS); conditions: 2 µM
[3] = The drug is tested on Bifidobacterium breve strain: DSM20213 for biotransformation. The drug concentrations were measured before and after a 12-h incubation by liquid-chromatography-coupled mass spectrometry (LC–MS); conditions: 2 µM
[4] = bacteroides intestinalis, 12 h, 2 µM
Description: The drug is tested on Bacteroides intestinalis strain: DSM17393 for biotransformation. The drug concentrations were measured before and after a 12-h incubation by liquid-chromatography-coupled mass spectrometry (LC–MS)

[5] = The drug is tested on Clostridium scindens strain: ATCC35704 for biotransformation. The drug concentrations were measured before and after a 12-h incubation by liquid-chromatography-coupled mass spectrometry (LC–MS); conditions: 2 µM
[6] = The drug is tested on Bacteroides coprophilus strain: DSM18228 for biotransformation. The drug concentrations were measured before and after a 12-h incubation by liquid-chromatography-coupled mass spectrometry (LC–MS); conditions: 2 µM
[7] = The drug is tested on Bacteroides xylanisolvens strain: DSM18836 for biotransformation. The drug concentrations were measured before and after a 12-h incubation by liquid-chromatography-coupled mass spectrometry (LC–MS); conditions: 2 µM
[8] = The drug is tested on Enterococcus faecalis strain: V583 for biotransformation. The drug concentrations were measured before and after a 12-h incubation by liquid-chromatography-coupled mass spectrometry (LC–MS); conditions: 2 µM
[9] = The drug is tested on Anaerotruncus colihominis strain: DSM17241 for biotransformation. The drug concentrations were measured before and after a 12-h incubation by liquid-chromatography-coupled mass spectrometry (LC–MS); conditions: 2 µM
[10] = The drug is tested on Blautia hansenii strain: DSM20583 for biotransformation. The drug concentrations were measured before and after a 12-h incubation by liquid-chromatography-coupled mass spectrometry (LC–MS); conditions: 2 µM
[11] = The drug is tested on Clostridium ramosum strain: DSM1402 for biotransformation. The drug concentrations were measured before and after a 12-h incubation by liquid-chromatography-coupled mass spectrometry (LC–MS); conditions: thomasclavelia ramosa, 2 µM
[12] = The drug is tested on Coprococcus comes strain: ATCC27758 for biotransformation. The drug concentrations were measured before and after a 12-h incubation by liquid-chromatography-coupled mass spectrometry (LC–MS); assay type: ADME; set-up: dose 2 uM, timepoint 0 vs 12 hours; conditions: 2 µM
[13] = The drug is tested on Providencia rettgeri strain: DSM1131 for biotransformation. The drug concentrations were measured before and after a 12-h incubation by liquid-chromatography-coupled mass spectrometry (LC–MS); assay type: ADME; set-up: dose 2 uM, timepoint 0 vs 12 hours; conditions: 2 µM
[14] = The drug is tested on Clostridium sporogenes strain: ATCC15579 for biotransformation. The drug concentrations were measured before and after a 12-h incubation by liquid-chromatography-coupled mass spectrometry (LC–MS); conditions: 2 µM
[15] = The drug is tested on Bacteroides fragilis strain: HMW615 for biotransformation. The drug concentrations were measured before and after a 12-h incubation by liquid-chromatography-coupled mass spectrometry (LC–MS); conditions: 2 µM
[16] = bacteroides thetaiotaomicron, 12 h, 2 µM
Description: The drug is tested on Bacteroides thetaiotaomicron strain: 7330 for biotransformation. The drug concentrations were measured before and after a 12-h incubation by liquid-chromatography-coupled mass spectrometry (LC–MS)

[17] = limosilactobacillus reuteri cf48-3a, 12 h, 2 µM
Description: The drug is tested on Lactobacillus reuteri CF48-3A strain: BEI HM-102 for biotransformation. The drug concentrations were measured before and after a 12-h incubation by liquid-chromatography-coupled mass spectrometry (LC–MS)

[18] = roseburia intestinalis, 12 h, 2 µM
Description: The drug is tested on Roseburia intestinalis strain: L1-82 for biotransformation. The drug concentrations were measured before and after a 12-h incubation by liquid-chromatography-coupled mass spectrometry (LC–MS)

[19] = bacteroides thetaiotaomicron, 12 h, 2 µM; remark: listed apart in the source
Description: The drug is tested on Bacteroides thetaiotaomicron strain: 3731 for biotransformation. The drug concentrations were measured before and after a 12-h incubation by liquid-chromatography-coupled mass spectrometry (LC–MS)

[20] = The drug is tested on Parabacteroides merdae strain: ATCC43184 for biotransformation. The drug concentrations were measured before and after a 12-h incubation by liquid-chromatography-coupled mass spectrometry (LC–MS); conditions: 2 µM

Row | SMILES | Bacterial Biotransformation [1] | Bacterial Biotransformation [2] | Bacterial Biotransformation [3] | Bacterial Biotransformation [4] | Bacterial Biotransformation [5] | Bacterial Biotransformation [6] | Bacterial Biotransformation [7] | Bacterial Biotransformation [8] | Bacterial Biotransformation [9] | Bacterial Biotransformation [10] | Bacterial Biotransformation [11] | Bacterial Biotransformation [12] | Bacterial Biotransformation [13] | Bacterial Biotransformation [14] | Bacterial Biotransformation [15] | Bacterial Biotransformation [16] | Bacterial Biotransformation [17] | Bacterial Biotransformation [18] | Bacterial Biotransformation [19] | Bacterial Biotransformation [20]
1 | CCN(C(C)=O)c1cccc(-c2ccnc3c(C#N)cnn23)c1 [ZALEPLON] | Compound metabolized | Compound metabolized | Compound NOT metabolized | Compound NOT metabolized | Compound NOT metabolized | Compound NOT metabolized | Compound metabolized | Compound NOT metabolized | Compound NOT metabolized | Compound metabolized | Compound NOT metabolized | Compound NOT metabolized | Compound NOT metabolized | Compound NOT metabolized | Compound metabolized | – | – | – | – | –
2 | O=C(NCc1ccccc1)OCCO [BURAMATE] | Compound NOT metabolized | Compound NOT metabolized | – | Compound NOT metabolized | Compound NOT metabolized | Compound NOT metabolized | Compound NOT metabolized | Compound NOT metabolized | Compound NOT metabolized | Compound NOT metabolized | Compound NOT metabolized | Compound NOT metabolized | Compound NOT metabolized | Compound NOT metabolized | Compound NOT metabolized | Compound NOT metabolized | Compound NOT metabolized | Compound NOT metabolized | Compound NOT metabolized | Compound NOT metabolized
3 | O=C(O)CCC(=O)O.O=C(O[C@H]1CN2CCC1CC2)N1CCc2ccccc2[C@@H]1c1ccccc1 [SOLIFENACIN SUCCINATE] | Compound NOT metabolized | Compound NOT metabolized | Compound NOT metabolized | Compound NOT metabolized | Compound NOT metabolized | Compound NOT metabolized | – | Compound NOT metabolized | Compound NOT metabolized | Compound NOT metabolized | Compound NOT metabolized | Compound NOT metabolized | Compound NOT metabolized | Compound NOT metabolized | Compound NOT metabolized | Compound NOT metabolized | Compound NOT metabolized | Compound NOT metabolized | Compound NOT metabolized | Compound NOT metabolized
4 | Cc1ccc(-c2nc3ccc(C)cn3c2CC(=O)N(C)C)cc1 [ZOLPIDEM] | Compound NOT metabolized | Compound NOT metabolized | Compound NOT metabolized | Compound NOT metabolized | – | – | – | Compound NOT metabolized | Compound NOT metabolized | Compound NOT metabolized | Compound NOT metabolized | Compound NOT metabolized | Compound NOT metabolized | Compound NOT metabolized | Compound NOT metabolized | Compound NOT metabolized | Compound NOT metabolized | Compound NOT metabolized | Compound NOT metabolized | Compound NOT metabolized
5 | CCC(COC(=O)c1cc(OC)c(OC)c(OC)c1)(c1ccccc1)N(C)C.O=C(O)/C=C\C(=O)O (stereo not drawn) | Compound metabolized | Compound NOT metabolized | – | Compound metabolized | Compound metabolized | Compound metabolized | Compound metabolized | Compound metabolized | Compound metabolized | Compound metabolized | Compound NOT metabolized | Compound metabolized | Compound NOT metabolized | Compound metabolized | Compound NOT metabolized | Compound metabolized | Compound metabolized | Compound metabolized | Compound metabolized | Compound metabolized
6 | CC(C)NCC(O)c1ccc(NS(C)(=O)=O)cc1 (stereo not drawn) [SOTALOL] | Compound metabolized | Compound metabolized | Compound NOT metabolized | – | Compound NOT metabolized | – | Compound NOT metabolized | Compound NOT metabolized | Compound NOT metabolized | Compound NOT metabolized | Compound NOT metabolized | Compound NOT metabolized | Compound NOT metabolized | Compound NOT metabolized | Compound metabolized | Compound metabolized | Compound NOT metabolized | Compound NOT metabolized | Compound NOT metabolized | Compound NOT metabolized
7 | O=c1[nH]c2ccccc2n1C1CCN(CCCC(c2ccc(F)cc2)c2ccc(F)cc2)CC1 [PIMOZIDE] | Compound NOT metabolized | Compound NOT metabolized | Compound NOT metabolized | Compound NOT metabolized | – | Compound NOT metabolized | Compound NOT metabolized | Compound NOT metabolized | Compound metabolized | Compound NOT metabolized | Compound NOT metabolized | Compound NOT metabolized | Compound NOT metabolized | Compound NOT metabolized | Compound NOT metabolized | Compound NOT metabolized | Compound NOT metabolized | Compound NOT metabolized | Compound NOT metabolized | Compound NOT metabolized
8 | CC(CN(C)C)CN1c2ccccc2CCc2ccccc21.O=C(O)/C=C\C(=O)O (stereo not drawn) [TRIMIPRAMINE MALEATE] | Compound NOT metabolized | Compound NOT metabolized | Compound NOT metabolized | Compound NOT metabolized | – | – | Compound NOT metabolized | – | Compound NOT metabolized | Compound NOT metabolized | Compound NOT metabolized | Compound NOT metabolized | Compound NOT metabolized | Compound NOT metabolized | Compound NOT metabolized | Compound NOT metabolized | Compound NOT metabolized | Compound NOT metabolized | Compound NOT metabolized | Compound NOT metabolized
